Assays:
[1] = target: T1, Serine/threonine-protein kinase 17A (Homo sapiens) (UniProt Q9UEE5); assay: Inhibition of human DRAK1 assessed as residual activity at 1 uM relative to control
T1 sequence (whole entry): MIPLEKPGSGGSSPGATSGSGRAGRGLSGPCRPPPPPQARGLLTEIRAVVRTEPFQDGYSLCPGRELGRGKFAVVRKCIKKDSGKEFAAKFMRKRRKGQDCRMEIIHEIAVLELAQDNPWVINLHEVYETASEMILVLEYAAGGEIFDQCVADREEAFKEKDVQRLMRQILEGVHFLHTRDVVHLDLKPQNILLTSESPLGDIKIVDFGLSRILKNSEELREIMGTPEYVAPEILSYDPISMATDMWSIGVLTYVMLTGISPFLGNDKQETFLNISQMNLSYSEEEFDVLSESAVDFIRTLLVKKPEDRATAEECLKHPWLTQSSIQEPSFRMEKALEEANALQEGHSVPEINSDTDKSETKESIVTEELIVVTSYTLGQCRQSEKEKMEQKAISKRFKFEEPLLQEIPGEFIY

[2] = target: RAC-alpha serine/threonine-protein kinase (Homo sapiens) (UniProt P31749); assay: Inhibition of human PKBalpha assessed as residual activity at 1 uM relative to control
Chain of RAC-alpha serine/threonine-protein kinase (Homo sapiens) (P31749 whole entry, the tested form may be a part): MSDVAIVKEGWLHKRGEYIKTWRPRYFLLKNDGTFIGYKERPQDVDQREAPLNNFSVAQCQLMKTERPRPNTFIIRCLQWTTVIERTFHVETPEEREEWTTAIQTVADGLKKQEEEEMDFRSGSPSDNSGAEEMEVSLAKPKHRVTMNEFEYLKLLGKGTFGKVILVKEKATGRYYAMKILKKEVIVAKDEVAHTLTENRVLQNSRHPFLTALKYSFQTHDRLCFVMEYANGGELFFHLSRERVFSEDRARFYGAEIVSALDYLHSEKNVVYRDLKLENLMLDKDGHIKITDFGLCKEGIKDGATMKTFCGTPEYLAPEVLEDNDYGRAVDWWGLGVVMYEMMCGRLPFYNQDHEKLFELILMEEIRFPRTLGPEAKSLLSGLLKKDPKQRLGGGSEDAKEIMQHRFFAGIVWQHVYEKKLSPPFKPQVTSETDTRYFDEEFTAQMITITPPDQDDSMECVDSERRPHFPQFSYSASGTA

[3] = target: T2, Phosphatidylinositol 3-kinase C2 domain-containing subunit gamma (Homo sapiens) (UniProt O75747); assay: Inhibition of human PI3KC2gamma assessed as residual activity at 1 uM relative to control
T2 sequence (whole entry): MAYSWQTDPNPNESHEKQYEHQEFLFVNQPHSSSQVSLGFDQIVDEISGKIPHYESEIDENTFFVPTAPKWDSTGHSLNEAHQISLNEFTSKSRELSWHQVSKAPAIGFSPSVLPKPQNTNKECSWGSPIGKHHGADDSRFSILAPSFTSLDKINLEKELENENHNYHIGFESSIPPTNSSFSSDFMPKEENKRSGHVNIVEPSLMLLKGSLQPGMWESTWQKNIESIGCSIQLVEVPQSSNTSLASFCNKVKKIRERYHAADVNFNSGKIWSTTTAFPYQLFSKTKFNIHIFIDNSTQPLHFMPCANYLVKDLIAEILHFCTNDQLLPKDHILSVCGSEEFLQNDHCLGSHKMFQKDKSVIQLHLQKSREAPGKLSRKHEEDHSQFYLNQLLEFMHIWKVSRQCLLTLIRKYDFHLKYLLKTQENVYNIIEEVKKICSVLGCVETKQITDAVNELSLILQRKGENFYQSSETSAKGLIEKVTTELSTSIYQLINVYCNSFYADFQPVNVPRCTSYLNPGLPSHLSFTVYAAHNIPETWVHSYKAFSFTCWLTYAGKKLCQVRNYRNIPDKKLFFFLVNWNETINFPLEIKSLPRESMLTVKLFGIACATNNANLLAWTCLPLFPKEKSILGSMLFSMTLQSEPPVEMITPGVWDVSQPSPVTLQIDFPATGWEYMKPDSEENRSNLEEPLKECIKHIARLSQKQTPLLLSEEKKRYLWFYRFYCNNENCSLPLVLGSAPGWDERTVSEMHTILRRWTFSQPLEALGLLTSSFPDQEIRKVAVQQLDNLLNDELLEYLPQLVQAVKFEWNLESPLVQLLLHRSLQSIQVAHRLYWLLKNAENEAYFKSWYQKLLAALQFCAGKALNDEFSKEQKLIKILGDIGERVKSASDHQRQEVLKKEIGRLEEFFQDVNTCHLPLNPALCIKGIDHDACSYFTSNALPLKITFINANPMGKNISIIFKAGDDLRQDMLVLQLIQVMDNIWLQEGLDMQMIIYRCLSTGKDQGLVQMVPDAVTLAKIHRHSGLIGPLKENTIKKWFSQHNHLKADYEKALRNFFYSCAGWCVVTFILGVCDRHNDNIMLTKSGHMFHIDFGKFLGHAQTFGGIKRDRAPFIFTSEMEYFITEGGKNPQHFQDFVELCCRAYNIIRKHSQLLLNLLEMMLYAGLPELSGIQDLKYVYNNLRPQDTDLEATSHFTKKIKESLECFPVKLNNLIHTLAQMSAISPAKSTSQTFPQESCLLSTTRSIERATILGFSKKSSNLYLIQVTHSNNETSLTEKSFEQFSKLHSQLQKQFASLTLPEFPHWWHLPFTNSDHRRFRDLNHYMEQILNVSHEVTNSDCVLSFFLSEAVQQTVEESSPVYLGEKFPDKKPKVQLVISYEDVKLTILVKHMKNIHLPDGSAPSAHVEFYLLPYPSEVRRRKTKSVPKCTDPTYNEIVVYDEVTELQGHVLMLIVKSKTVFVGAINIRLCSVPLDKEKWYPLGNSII

[4] = target: Ribosomal protein S6 kinase alpha-5 (Homo sapiens) (UniProt O75582); assay: Inhibition of human MSK1 assessed as residual activity at 1 uM relative to control
Chain of Ribosomal protein S6 kinase alpha-5 (Homo sapiens) (O75582 whole entry, looked up): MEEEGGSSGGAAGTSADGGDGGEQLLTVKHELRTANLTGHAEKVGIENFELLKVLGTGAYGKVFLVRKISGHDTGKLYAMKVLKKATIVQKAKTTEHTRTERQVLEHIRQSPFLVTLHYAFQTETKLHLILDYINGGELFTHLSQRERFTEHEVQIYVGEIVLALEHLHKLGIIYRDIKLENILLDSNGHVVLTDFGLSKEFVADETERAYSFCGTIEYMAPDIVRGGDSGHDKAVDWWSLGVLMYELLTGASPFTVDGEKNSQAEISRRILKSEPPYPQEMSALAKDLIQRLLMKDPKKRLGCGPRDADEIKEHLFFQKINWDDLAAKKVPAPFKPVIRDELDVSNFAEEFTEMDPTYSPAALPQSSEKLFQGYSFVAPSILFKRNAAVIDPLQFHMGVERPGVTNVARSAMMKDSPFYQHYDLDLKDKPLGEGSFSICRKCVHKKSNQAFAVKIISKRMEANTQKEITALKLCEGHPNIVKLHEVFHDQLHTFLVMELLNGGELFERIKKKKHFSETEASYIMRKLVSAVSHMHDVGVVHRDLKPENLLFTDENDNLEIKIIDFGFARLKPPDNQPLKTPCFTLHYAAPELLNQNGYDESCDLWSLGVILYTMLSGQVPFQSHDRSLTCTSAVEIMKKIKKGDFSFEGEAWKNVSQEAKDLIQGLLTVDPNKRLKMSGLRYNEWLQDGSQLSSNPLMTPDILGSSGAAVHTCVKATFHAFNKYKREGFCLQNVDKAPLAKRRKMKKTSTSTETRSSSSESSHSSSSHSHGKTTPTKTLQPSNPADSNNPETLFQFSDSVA

[5] = target: Myosin light chain kinase, smooth muscle (Homo sapiens) (UniProt Q15746); assay: Inhibition of human MLCK assessed as residual activity at 1 uM relative to control
Chain of Myosin light chain kinase, smooth muscle (Homo sapiens) (Q15746 whole entry): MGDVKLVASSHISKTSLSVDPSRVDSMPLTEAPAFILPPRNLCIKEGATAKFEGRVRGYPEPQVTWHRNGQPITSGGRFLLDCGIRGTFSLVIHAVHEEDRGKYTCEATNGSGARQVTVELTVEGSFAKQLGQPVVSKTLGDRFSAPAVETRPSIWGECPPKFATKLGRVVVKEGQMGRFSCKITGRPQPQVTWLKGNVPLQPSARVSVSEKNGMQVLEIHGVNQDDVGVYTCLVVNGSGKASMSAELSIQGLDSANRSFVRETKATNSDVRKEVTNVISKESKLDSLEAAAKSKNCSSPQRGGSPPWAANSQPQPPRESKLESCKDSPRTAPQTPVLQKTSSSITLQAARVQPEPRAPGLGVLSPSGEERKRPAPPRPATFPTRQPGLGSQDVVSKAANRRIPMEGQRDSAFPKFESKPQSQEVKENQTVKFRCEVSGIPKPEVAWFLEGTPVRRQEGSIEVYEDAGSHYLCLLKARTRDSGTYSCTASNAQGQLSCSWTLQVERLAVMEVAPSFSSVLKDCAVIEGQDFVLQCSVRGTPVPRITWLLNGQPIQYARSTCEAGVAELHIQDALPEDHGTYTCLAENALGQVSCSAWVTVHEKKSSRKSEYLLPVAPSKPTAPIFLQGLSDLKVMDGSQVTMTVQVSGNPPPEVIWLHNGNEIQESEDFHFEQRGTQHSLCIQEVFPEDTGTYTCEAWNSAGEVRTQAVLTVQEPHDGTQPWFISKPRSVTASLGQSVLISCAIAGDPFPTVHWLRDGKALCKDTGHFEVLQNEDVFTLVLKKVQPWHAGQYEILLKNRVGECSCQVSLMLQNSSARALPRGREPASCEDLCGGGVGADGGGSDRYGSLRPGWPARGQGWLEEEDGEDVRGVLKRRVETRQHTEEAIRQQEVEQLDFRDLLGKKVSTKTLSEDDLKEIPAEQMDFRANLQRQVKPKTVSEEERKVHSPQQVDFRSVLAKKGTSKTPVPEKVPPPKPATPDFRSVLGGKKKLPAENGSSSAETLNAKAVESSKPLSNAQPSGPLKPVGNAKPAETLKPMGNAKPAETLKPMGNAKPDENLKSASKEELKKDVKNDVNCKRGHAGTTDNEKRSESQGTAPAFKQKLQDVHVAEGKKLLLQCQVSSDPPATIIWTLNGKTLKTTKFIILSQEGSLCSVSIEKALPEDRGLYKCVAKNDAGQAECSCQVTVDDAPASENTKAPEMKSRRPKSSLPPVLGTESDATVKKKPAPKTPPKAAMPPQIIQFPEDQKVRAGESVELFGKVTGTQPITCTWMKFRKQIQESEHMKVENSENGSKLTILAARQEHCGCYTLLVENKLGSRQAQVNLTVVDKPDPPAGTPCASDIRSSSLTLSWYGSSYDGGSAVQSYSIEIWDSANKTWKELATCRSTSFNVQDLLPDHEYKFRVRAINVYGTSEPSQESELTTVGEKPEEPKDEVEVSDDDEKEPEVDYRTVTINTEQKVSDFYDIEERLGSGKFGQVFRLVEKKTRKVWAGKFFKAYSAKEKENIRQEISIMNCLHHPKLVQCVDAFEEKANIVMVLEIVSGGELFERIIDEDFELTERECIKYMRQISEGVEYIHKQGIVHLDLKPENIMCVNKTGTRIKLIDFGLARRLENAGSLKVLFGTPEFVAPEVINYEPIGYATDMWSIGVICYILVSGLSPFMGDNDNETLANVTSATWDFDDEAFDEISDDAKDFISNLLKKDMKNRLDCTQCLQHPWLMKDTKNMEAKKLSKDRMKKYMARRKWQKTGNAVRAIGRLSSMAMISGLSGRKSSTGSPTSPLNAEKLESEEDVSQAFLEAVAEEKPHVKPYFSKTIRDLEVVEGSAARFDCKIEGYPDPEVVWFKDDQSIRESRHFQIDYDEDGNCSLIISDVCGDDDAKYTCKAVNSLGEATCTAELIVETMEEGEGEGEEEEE

[6] = target: T3, Serine/threonine-protein kinase 4 (Homo sapiens) (UniProt Q13043); assay: Inhibition of human MST1 assessed as residual activity at 1 uM relative to control
T3 sequence (whole entry): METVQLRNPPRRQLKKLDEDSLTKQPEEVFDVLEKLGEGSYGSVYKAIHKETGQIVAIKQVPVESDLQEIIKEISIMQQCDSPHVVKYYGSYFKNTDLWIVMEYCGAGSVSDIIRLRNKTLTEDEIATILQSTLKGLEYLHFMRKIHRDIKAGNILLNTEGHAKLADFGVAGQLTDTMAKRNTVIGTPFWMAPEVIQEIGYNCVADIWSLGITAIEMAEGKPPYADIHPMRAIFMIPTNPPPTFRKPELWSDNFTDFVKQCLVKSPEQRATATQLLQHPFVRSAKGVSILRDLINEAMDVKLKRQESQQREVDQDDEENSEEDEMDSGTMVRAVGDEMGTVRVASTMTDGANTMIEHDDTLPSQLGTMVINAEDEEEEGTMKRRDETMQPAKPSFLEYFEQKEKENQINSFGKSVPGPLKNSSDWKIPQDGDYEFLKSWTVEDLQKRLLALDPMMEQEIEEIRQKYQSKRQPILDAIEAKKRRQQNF

[7] = target: 3-phosphoinositide-dependent protein kinase 1 (Homo sapiens) (UniProt O15530); assay: Inhibition of human PDK1 assessed as residual activity at 1 uM relative to control
Chain of 3-phosphoinositide-dependent protein kinase 1 (Homo sapiens) (O15530 whole entry, looked up): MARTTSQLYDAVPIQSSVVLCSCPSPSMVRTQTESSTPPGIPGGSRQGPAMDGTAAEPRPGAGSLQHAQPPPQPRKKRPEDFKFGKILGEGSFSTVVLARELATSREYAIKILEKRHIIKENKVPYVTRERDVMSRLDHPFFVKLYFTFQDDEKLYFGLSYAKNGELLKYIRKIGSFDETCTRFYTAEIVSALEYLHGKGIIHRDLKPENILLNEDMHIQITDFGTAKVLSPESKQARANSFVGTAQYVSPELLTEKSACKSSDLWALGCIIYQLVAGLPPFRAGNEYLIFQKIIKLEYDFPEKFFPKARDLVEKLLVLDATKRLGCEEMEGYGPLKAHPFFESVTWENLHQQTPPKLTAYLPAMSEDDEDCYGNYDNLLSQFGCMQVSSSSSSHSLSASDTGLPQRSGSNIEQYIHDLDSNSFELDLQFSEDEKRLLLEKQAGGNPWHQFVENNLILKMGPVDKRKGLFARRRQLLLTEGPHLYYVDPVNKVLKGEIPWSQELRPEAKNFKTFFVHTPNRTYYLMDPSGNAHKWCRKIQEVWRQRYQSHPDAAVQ

[8] = target: Tyrosine-protein kinase Lyn (Homo sapiens) (UniProt P07948); assay: Inhibition of human LYN assessed as residual activity at 1 uM relative to control
Chain of Tyrosine-protein kinase Lyn (Homo sapiens) (P07948 2-512 limits assumed): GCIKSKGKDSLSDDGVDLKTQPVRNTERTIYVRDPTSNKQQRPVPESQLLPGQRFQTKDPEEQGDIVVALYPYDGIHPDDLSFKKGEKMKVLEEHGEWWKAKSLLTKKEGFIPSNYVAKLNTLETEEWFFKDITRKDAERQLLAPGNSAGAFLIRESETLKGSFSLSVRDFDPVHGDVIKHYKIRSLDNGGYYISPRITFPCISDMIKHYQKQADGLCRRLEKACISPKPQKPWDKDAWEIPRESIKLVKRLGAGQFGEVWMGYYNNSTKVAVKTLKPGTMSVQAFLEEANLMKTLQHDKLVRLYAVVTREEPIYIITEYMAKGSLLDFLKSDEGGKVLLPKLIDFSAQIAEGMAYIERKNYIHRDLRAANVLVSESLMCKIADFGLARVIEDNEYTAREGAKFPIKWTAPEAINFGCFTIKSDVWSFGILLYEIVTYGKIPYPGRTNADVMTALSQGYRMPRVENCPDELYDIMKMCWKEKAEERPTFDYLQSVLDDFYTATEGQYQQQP

[9] = target: Cyclin-dependent kinase 1/cyclin B1 (Homo sapiens) (UniProt P06493+P14635); assay: Inhibition of human CDK1/cyclin B assessed as residual activity at 1 uM relative to control; format: protein-complex assay
Chain of Cyclin-dependent kinase 1/cyclin B1 (Homo sapiens) (P06493 whole entry, looked up): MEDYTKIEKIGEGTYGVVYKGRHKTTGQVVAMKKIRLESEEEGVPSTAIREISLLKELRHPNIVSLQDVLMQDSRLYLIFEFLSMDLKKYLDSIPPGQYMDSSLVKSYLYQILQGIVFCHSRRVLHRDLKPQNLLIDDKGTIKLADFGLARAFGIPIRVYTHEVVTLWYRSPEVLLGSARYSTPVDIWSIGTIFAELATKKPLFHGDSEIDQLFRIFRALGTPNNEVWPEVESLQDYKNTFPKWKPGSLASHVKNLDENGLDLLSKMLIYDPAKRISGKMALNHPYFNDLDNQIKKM
Chain of Cyclin-dependent kinase 1/cyclin B1 (Homo sapiens) (P14635 whole entry, looked up): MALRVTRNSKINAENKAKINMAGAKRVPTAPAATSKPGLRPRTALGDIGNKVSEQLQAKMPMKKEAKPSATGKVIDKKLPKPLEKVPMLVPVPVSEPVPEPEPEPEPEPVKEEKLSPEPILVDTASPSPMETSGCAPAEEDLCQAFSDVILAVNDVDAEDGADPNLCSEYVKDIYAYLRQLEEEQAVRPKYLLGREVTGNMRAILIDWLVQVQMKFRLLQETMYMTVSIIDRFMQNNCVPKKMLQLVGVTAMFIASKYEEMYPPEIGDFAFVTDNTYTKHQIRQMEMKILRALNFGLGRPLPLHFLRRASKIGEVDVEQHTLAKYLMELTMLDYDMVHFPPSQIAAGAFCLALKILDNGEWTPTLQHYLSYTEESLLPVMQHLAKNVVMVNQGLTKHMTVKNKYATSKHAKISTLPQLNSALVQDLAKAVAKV

[10] = target: Focal adhesion kinase 1 (Homo sapiens) (UniProt Q05397); assay: Inhibition of human FAK assessed as residual activity at 1 uM relative to control

Activity [1] [%] | Activity [2] [%] | Activity [3] [%] | Activity [4] [%] | Activity [5] [%] | Activity [6] [%] | Activity [7] [%] | Activity [8] [%] | Activity [9] [%] | Activity [10] [%] | SMILES
7 | 111 | 94 | 104 | 106 | 116 | 80 | 39 | 68 | 90 | COc1ccc(-c2nc3cc(-c4csc(C(=O)NCCC(C)C)c4)cnc3[nH]2)cc1
8 | 107 | 94 | 104 | 95 | 122 | 85 | 61 | 89 | 80 | COc1ccc(-c2nc3cc(-c4csc(C(=O)NCC(C)(C)C)c4)cnc3[nH]2)cc1
4 | 119 | 92 | 100 | 100 | 115 | 91 | 46 | 68 | 91 | COc1ccc(-c2nc3cc(-c4csc(C(=O)NCC(C)C)c4)cnc3[nH]2)cc1
